In US10996170B2, “Device and method for imaging shortwave infrared fluorescence” (Massachusetts Institute of Technology, priority 2016, dated 2021):

Test system: liver
Test: SWIR imaging of hepatobiliary clearance in vivo
Conditions: 1.7 mg/kg intravenously; mouse
Procedure: When injected into a living system, indocyanine green is metabolized by the liver and excreted by the liver and bile ducts by a process called hepatobiliary clearance. This process was observed, noninvasively, by injecting a solution of indocyanine green intravenously into a mouse and using an SWIR imaging system as described herein to observe the fluorescence of indocyanine green. The dye was injected at a dose of 1.7 mg/kg which is below the maximum recommended dose of indocyanine green in humans. […] Despite the fact that 1500 nm is far from the peak emission of indocyanine green, there is sufficient emission intensity from the tail of the emission peak in this wavelength region to obtain a SWIR fluorescence image. Separately, hepatobiliary excretion of ICG into the small intestine in a mouse was also imaged using a near video rate imaging of 19.7 frames per second using a 1200 nm long-pass filter, which enabled capturing the peristaltic movements of the small intestine. Although the frame rate was slower, 2.0 frames per second, it was possible to image the ICG clearance using a 1500 nm long-pass filter, capturing wavelengths between roughly 1500 and 1620 nm.

## CC1(C)C(/C=C/C=C/C=C/C=C2\N(CCCCS(=O)(=O)O)c3ccc4ccccc4c3C2(C)C)=[N+](CCCCS(=O)(=O)[O-])c2ccc3ccccc3c21 [ICG, indocyanine green]
  tissue distribution observed by SWIR fluorescence: Accumulation of indocyanine green in the liver
